{"source": "PubChem BioAssay AID248", "about": "(DTP/NCI, 2004)", "test_system": "L1210 leukemia ip in BDF1 mice, survival T/C", "experiment": "NCI In Vivo Anticancer Drug Screen. Data for tumor model L1210 Leukemia (intraperitoneal) in B6D2F1 (BDF1) mice", "settings": "endpoint: mean survival time, higher = longer survival", "outline": "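Mice bearing the transplanted tumor received compound or vehicle. Survival of the treated group was divided by that of the vehicle-treated control group to give the ratio.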", "note": "“And” between values parts separate entries of the source, which are not always exact repeats. Equal values may be shown once. Inconclusive results and toxic doses are left out."}
{"smiles": "Nc1nc2n[nH]nc2c(=O)[nH]1", "values": [{"measurement": "T/C", "setting": "dose: 1.25 mg/kg/injection, schedule: Q01DX015 (ip), vehicle: clinical formulation", "value": "109 % of control"}, {"measurement": "T/C", "setting": "dose: 1.4 mg/kg/injection, schedule: Q01DX Z (ip), vehicle: carboxymethylcellulose (CMC)", "value": "109 % of control"}, {"measurement": "T/C", "setting": "dose: 2.5 mg/kg/injection, schedule: Q01DX015 (ip), vehicle: clinical formulation", "value": "107 % of control"}, {"measurement": "T/C", "setting": "dose: 2.8 mg/kg/injection, schedule: Q01DX Z (ip), vehicle: carboxymethylcellulose (CMC)", "value": "109 % of control"}, {"measurement": "T/C", "setting": "dose: 3.13 mg/kg/injection, schedule: Q01DX010 (ip), vehicle: alkali diluted with saline", "value": "108 % of control and 110 % of control"}, {"measurement": "T/C", "setting": "dose: 5.0 mg/kg/injection, schedule: Q01DX015 (ip), vehicle: clinical formulation", "value": "107 % of control"}, {"measurement": "T/C", "setting": "dose: 5.0 mg/kg/injection, schedule: Q01DX Z (oral), vehicle: carboxymethylcellulose (CMC)", "value": "115 % of control"}, {"measurement": "T/C", "setting": "dose: 5.59 mg/kg/injection, schedule: Q01DX Z (ip), vehicle: carboxymethylcellulose (CMC)", "value": "118 % of control"}, {"measurement": "T/C", "setting": "dose: 6.25 mg/kg/injection, schedule: Q01DX010 (ip), vehicle: alkali diluted with saline", "value": "122 % of control and 123 % of control"}, {"measurement": "T/C", "setting": "dose: 7.5 mg/kg/injection, schedule: Q01DX Z (sc), vehicle: carboxymethylcellulose (CMC)", "value": "112 % of control"}, {"measurement": "T/C", "setting": "dose: 10.0 mg/kg/injection, schedule: Q01DX015 (ip), vehicle: clinical formulation", "value": "117 % of control"}, {"measurement": "T/C", "setting": "dose: 10.0 mg/kg/injection, schedule: Q01DX Z (oral), vehicle: carboxymethylcellulose (CMC)", "value": "103 % of control"}, {"measurement": "T/C", "setting": "dose: 12.5 mg/kg/injection, schedule: Q01DX006 (iv), vehicle: water", "value": "104 % of control"}, {"measurement": "T/C", "setting": "dose: 12.5 mg/kg/injection, schedule: Q01DX Z (im), vehicle: water", "value": "121 % of control"}, {"measurement": "T/C", "setting": "dose: 12.5 mg/kg/injection, schedule: Q01DX Z (ip), vehicle: other", "value": "97 % of control"}, {"measurement": "T/C", "setting": "dose: 15.0 mg/kg/injection, schedule: Q01DX Z (sc), vehicle: carboxymethylcellulose (CMC)", "value": "106 % of control"}, {"measurement": "T/C", "setting": "dose: 20.0 mg/kg/injection, schedule: Q01DX015 (ip), vehicle: water", "value": "101 % of control"}, {"measurement": "T/C", "setting": "dose: 20.0 mg/kg/injection, schedule: Q01DX Z (oral), vehicle: carboxymethylcellulose (CMC)", "value": "95 % of control"}, {"measurement": "T/C", "setting": "dose: 22.35 mg/kg/injection, schedule: Q01DX Z (ip), vehicle: carboxymethylcellulose (CMC)", "value": "152 % of control"}, {"measurement": "T/C", "setting": "dose: 25.0 mg/kg/injection, schedule: Q01DX005 (ip), vehicle: other", "value": "111 % of control"}, {"measurement": "T/C", "setting": "dose: 25.0 mg/kg/injection, schedule: Q01DX006 (iv), vehicle: water", "value": "113 % of control"}, {"measurement": "T/C", "setting": "dose: 25.0 mg/kg/injection, schedule: Q01DX009 (ip), vehicle: saline", "value": "154 % of control and 160 % of control"}, {"measurement": "T/C", "setting": "dose: 25.0 mg/kg/injection, schedule: Q01DX009 (sc), vehicle: carboxymethylcellulose (CMC)", "value": "104 % of control"}, {"measurement": "T/C", "setting": "dose: 25.0 mg/kg/injection, schedule: Q01DX Z (ip), vehicle: other", "value": "106 % of control"}, {"measurement": "T/C", "setting": "dose: 30.0 mg/kg/injection, schedule: Q01DX Z (ip), vehicle: other", "value": "121 % of control"}, {"measurement": "T/C", "setting": "dose: 40.0 mg/kg/injection, schedule: Q01DX009 (ip), vehicle: other", "value": "159 % of control"}, {"measurement": "T/C", "setting": "dose: 40.0 mg/kg/injection, schedule: Q01DX Z (oral), vehicle: carboxymethylcellulose (CMC)", "value": "109 % of control"}, {"measurement": "T/C", "setting": "dose: 44.0 mg/kg/injection, schedule: Q01DX015 (ip), vehicle: water", "value": "98 % of control and 115 % of control"}, {"measurement": "T/C", "setting": "dose: 50.0 mg/kg/injection, schedule: Q01DX001 (ip), vehicle: steriod suspending solution", "value": "117 % of control"}, {"measurement": "T/C", "setting": "dose: 50.0 mg/kg/injection, schedule: Q01DX005 (ip), vehicle: other", "value": "122 % of control"}, {"measurement": "T/C", "setting": "dose: 50.0 mg/kg/injection, schedule: Q01DX009 (ip), vehicle: carboxymethylcellulose (CMC)", "value": "159 % of control"}, {"measurement": "T/C", "setting": "dose: 50.0 mg/kg/injection, schedule: Q01DX009 (ip), vehicle: other", "value": "155 % of control"}, {"measurement": "T/C", "setting": "dose: 50.0 mg/kg/injection, schedule: Q01DX009 (ip), vehicle: saline", "value": "156 % of control and 158 % of control"}, {"measurement": "T/C", "setting": "dose: 50.0 mg/kg/injection, schedule: Q01DX Z (im), vehicle: water", "value": "160 % of control"}, {"measurement": "T/C", "setting": "dose: 50.0 mg/kg/injection, schedule: Q01DX Z (oral), vehicle: other", "value": "93 % of control"}, {"measurement": "T/C", "setting": "dose: 50.0 mg/kg/injection, schedule: Q01DX Z (oral), vehicle: water", "value": "98 % of control"}, {"measurement": "T/C", "setting": "dose: 50.0 mg/kg/injection, schedule: Q01DX Z (sc), vehicle: water", "value": "154 % of control"}, {"measurement": "T/C", "setting": "dose: 60.0 mg/kg/injection, schedule: Q01DX009 (ip), vehicle: other", "value": "152 % of control"}, {"measurement": "T/C", "setting": "dose: 61.0 mg/kg/injection, schedule: Q01DX015 (ip), vehicle: water", "value": "156 % of control"}, {"measurement": "T/C", "setting": "dose: 62.0 mg/kg/injection, schedule: Q01DX001 (ip), vehicle: carboxymethylcellulose (CMC)", "value": "121 % of control"}, {"measurement": "T/C", "setting": "dose: 62.0 mg/kg/injection, schedule: Q01DX001 (sc), vehicle: carboxymethylcellulose (CMC)", "value": "106 % of control"}, {"measurement": "T/C", "setting": "dose: 64.0 mg/kg/injection, schedule: Q## X024 (ip), vehicle: other", "value": "150 % of control"}, {"measurement": "T/C", "setting": "dose: 75.0 mg/kg/injection, schedule: Q01DX009 (ip), vehicle: other", "value": "156 % of control"}, {"measurement": "T/C", "setting": "dose: 75.0 mg/kg/injection, schedule: Q02DX005 (ip), vehicle: carboxymethylcellulose (CMC)", "value": "159 % of control"}, {"measurement": "T/C", "setting": "dose: 87.0 mg/kg/injection, schedule: Q01DX001 (ip), vehicle: water", "value": "115 % of control and 122 % of control"}]}
